# Values of other authors, collected in patent US20100242127A1, “METHODS TO IDENTIFY MODULATORS OF B-RAF PROTEIN KINASE AND THEIR USE FOR THE TREATMENT OF ANXIETY AND DEPRESSION” (HELMHOLTZ ZENTRUM MUNCHEN, priority 2007, published 2010).
# Test system: Mek
# Conditions: mouse brain
substance,measurement,setting,value
PD184161,behavioural phenotype after acute blockade of Mek,,depressive-like phenotype
same,effect on behavioural actions of antidepressants,acute,counteract the behavioural actions of antidepressants
